Test [1] has as its target High affinity nerve growth factor receptor (Homo sapiens, UniProt P04629). The test can be described thus: Inhibitory Activity of Compounds Against TRKA and TRKA(F589L) Kinases. Here is the method:
(§1) Kinase Assay Process: 1× Kinase buffer was prepared. […] 10 μL of the 2.5× final concentration kinase solution was added to the compound wells and the positive control wells, and 10 μL of 1× Kinase buffer was added to the negative control wells. The plate was centrifuged at 1000 rpm for 30 seconds, vortexed for mixing, and then incubated at room temperature for 10 minutes. A mixture of 5/3× final concentration of ATP and Kinase Substrate 22 was prepared using 1× Kinase buffer. 15 μL of the mixture of the 5/3× final concentration ATP and the substrate was added to initiate the reaction, the 384-well plate was centrifuged at 1000 rpm for 30 seconds, vortexed for mixing, and incubated at room temperature for the required time. 30 μL of the termination solution was added to stop the kinase reaction, the plate was centrifuged at 1000 rpm for 30 seconds, and vortexed for mixing. The conversion rate was measured using the Caliper EZ Reader.

For test [2], the target named is High affinity nerve growth factor receptor NTRK1 [F589L] (UniProt P04629, F589L). Described as above. Here is the method:
as §1

Sequence of High affinity nerve growth factor receptor (P04629 whole entry): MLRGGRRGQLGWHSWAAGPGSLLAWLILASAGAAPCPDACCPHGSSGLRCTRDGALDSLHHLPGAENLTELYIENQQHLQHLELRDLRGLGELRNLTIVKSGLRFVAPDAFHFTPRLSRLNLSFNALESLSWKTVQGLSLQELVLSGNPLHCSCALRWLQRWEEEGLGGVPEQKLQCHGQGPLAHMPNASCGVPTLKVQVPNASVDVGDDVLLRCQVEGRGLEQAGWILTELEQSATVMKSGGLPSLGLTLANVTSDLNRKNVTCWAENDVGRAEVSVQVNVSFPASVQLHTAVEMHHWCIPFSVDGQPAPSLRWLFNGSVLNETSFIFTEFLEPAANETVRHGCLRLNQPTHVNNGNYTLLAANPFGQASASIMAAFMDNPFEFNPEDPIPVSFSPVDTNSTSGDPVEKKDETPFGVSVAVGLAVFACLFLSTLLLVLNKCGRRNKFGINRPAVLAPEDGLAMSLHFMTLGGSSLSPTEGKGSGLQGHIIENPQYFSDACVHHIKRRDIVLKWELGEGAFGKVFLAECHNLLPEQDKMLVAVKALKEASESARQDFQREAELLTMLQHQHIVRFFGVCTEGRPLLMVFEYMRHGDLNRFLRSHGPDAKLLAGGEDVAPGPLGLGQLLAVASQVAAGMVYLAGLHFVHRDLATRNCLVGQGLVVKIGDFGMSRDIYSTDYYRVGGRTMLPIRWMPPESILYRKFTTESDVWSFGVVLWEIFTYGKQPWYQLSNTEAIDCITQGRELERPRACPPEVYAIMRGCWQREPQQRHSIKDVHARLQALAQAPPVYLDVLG
Sequence of High affinity nerve growth factor receptor NTRK1 [F589L] (P04629 33-796 F589L limits assumed): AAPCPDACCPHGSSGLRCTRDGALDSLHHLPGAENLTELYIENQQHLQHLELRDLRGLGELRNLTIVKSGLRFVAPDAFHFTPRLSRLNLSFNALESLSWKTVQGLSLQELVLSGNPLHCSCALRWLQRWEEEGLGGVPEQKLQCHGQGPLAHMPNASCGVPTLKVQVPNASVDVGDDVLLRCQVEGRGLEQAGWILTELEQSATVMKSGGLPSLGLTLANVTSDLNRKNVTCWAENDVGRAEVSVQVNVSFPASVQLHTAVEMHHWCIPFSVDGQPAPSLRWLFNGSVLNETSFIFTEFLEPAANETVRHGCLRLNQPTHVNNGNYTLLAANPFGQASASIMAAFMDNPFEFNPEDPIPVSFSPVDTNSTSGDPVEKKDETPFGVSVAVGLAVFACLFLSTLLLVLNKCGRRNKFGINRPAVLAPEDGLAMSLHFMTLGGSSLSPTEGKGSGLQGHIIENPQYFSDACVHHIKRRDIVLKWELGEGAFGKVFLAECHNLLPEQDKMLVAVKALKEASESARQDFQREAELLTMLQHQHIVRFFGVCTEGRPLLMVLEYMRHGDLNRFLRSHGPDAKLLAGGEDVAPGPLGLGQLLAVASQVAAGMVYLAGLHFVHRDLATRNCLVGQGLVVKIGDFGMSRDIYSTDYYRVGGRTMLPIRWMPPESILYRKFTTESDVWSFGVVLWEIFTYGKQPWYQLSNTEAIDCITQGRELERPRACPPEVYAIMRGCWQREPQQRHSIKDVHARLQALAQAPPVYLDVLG

Broadly, the IC50 is the concentration at which inhibition is half-maximal. Read a high IC50 as a need for much substance. For the molecule `C[C@@H]1Cc2cc(ncn2)-c2cnc3ccc(nn23)N[C@H](C)c2cc(F)ccc2O1` [US20260028352, Example I-35], the IC50 in test [1] is < 3 nM; in test [2], < 5 nM.
Regarding `C[C@H]1Cc2ccnc(n2)-c2cnc3ccc(nn23)N2C[C@@H](F)C[C@@H]2c2cc(F)cnc2O1` [US20260028352, Example I-96], the 50% inhibitory concentration (IC50) is < 3 nM in test [1] and < 5 nM in test [2].
On the same counts, the results for `Fc1ccc2c(c1)[C@H]1CCCN1c1ccc3ncc(n3n1)-c1nccc(n1)CO2` [US20260028352, Example I-61] are < 3 nM and < 5 nM.
On the same counts, the results for `Fc1ccc2c(c1)[C@H]1CCCN1c1ccc3ncc(n3n1)-c1cc(ccn1)[C@@H]1CCC[C@H]1O2` [US20260028352, Example I-46] are < 3 nM and < 5 nM.

(Values after BindingDB's records for patent US20260028352 (Suzhou Langrui Biopharmaceutical, 2026).)
